Experimental data published in patent US20250161238A1, “NMDAR Antagonists Prevent Ageing and Aging-Associated Conditions and Diseases Through Increasing 20S Proteasome Activity” (priority 2022, published 2025).

Assays:
[1] = test system: LC3; experiment: Autophagy: LC3 turnover and LC3 puncta in HepG2 stably expressing LC3; assay type: cell-based, human; conditions: HepG2 cell stably expressing LC3
Text: One of the most experimentally straightforward method to monitor autophagic activity is the detection of microtubule-associated protein light chain 3 (LC3) protein processing. LC3 is the only known protein that is specifically associated with all types of autophagic membranes, including phagophore, autophagosome and autolysosome (a hybrid organelle formed by fusion of the autophagosome and lysosome). LC3 is specifically associated with the autophagosome. Upon the autophagy induction, the cytosolic LC3 (LC3-I) is conjugated to phosphatidylethanolamine (PE) to form lipidated LC3 (LC3-II). LC3-II binds to the expanding isolation membrane and remains bounded to complete autophagosome. Therefore, the amount of LC3-II correlates well with the number of autophagosomes, which is widely used as a marker for the autophagosome. Autophagy is a multi-step process which includes not just the formation of autophagosomes, but most importantly, the flux through the entire system, including the degradation of LC3-II upon fusion with lysosomes. Therefore, the expected result is that the LC3-II protein is degraded for complete autophagy. […] However, total amount of LC3 (LC3-I plus LC3II) was not changed.
The other basic protocol for the outophagy detection is monitoring the number of autophagosomes by visualizin LC3 puncta using flourescence microscopy. […]

[2] = test system: mice; experiment: Kondziela's inverted screen test in aged mice; assay type: in vivo; conditions: mice at 22 months
Text: Kondziela's inverted screen test is one of tests which examine the muscle strength using all four limbs. Four limb-hanging test which is the Kondziella's inverted screen test represents a method to assess muscle strength using all four limbs grip and to determine the general condition during time. […] As a result, the test can provide important information about age-related neuromuscular decline.
(§1) The experimental protocols were approved by the Ethics Committee of Ankara University, Faculty of Medicine, Medical Sciences Experimental Research and Application Center (Date: Dec. 11, 2019 and Decision number: 2019-22-189). Adult (12-mounts-old) C57BL/6 mice (5 for each group) were used. The mice were housed at the Experimental Animal Research Laboratory of Ankara University Faculty of Medicine. Food and water were given without restriction. The ambient temperature was kept at 21±2° C., and locomotor activity tests were performed at this temperature. The animals were housed in a room with a 12-hour light/dark cycle. The procedures in the study were performed in accordance with the Ankara University Animal Care Committee according to international guidelines. Memantine (Sigma-Aldrich) was administered orally at 3 mg/Kg/per day with drinking water of one-year-old mice. Tests related to locomotor activities of the mice were recorded and available.
Inverted screen test described firstly Kondizela for muscle strength (Kondizela, 1964). The mouse was put on a center of the rectangular mesh screen (52 cm×32 cm) and the screen was rotated 180° over 2 seconds. The screen was held steadily 40-50 cm above a sawdust surface. Holding time were recorded for a maximum of 5 minutes. The inverted screen was scored previously by Deacon (Falling between 1-10 sec=1 Falling between 11-25 seconds=2 Falling between 26-60 seconds=3 Falling between 61-90 seconds=4 Falling after 90 seconds=5) (Deacon, 2013). According to previous studies, parameters such as Total mobility time % (Gleitz et al, 2017), the latency of falling time, and four limbs griping time (Roemers et al, 2019) were analyzed.

[3] = test system: mice; experiment: Open Field Maze (OFM) tests in aged mice; assay type: in vivo
Text: Another test showing locomotor activity in mice is Open Field Maze (OFM). The OFM is one of the most widely used platforms which allow the researcher to measure behaviors ranging from overall locomotor activity to anxiety-related emotional behaviors. The first and most important specific parameter to measure in the OFM is total ambulatory distance.
as §1
Open Field Test described firstly Hall for “emotionality” (Hall, 1934). Open Field test is used for anxiety-like behavior (ALB) and locomotor activity. We conducted the test in a hypethral box, which was made of 62×68 cm blueboard. The base of the box was divided into 20 equal rectangles. Animals had placed in the central region of Open Field Test. The first 5 min of the record was used for the analysis of behavioral parameters such as total distance traveled (horizontal locomotor activity), total rearing number (vertical locomotor activity), central zone time (ALB), Central zone Latency (the time of first return to the central region: ALB), central zone entrance (ALB), unsupported rearing (vertical locomotor activity without touch test wall and exploratory behavior, sensitive for ALB), central escape latency (first escape time from central zone: ALB) (Çalιşkan et al, 2019, Çalιşkan et al, 2020).

[4] = test system: human mesenchymal stem cells; experiment: Lipid droplet amount in mesenchymal stem cells; assay type: cell-based; conditions: day 14
Text: Cell were harvested at day 14 for western blot and the protein expression amounts of the differentiation markers cd44, cd73, and cd90 were investigated. […] Another indicator of the stem cell differentiation is the determination of the amounts of lipid droplet in the cell. Fourteen-day cell passage is caused to increase lipid in the cell. It was observed that memantine treatment has prevented the amount of lipid droplet (FIG. 36D).

[5] = test system: human mesenchymal stem cells; experiment: MTT test of mesenchymal stem cells; assay type: cell-based; conditions: day 21
[6] = mice, 30 mg/kg dose; cited from earlier work

With CNC1(c2ccccc2Cl)CCCCC1=O (stereo not drawn) [ketamin, 2-(2-chlorophenyl)-2-(methylamino)-cyclohexanone] the “total amount of LC3 (LC3-I plus LC3II)” value [1] was “not changed” and the LC3-II amount ([1]; western blot) was “increase”.
For CC12CC3CC(C)(C1)CC(N)(C3)C2 [memantine, 3,5-dimethyladamantan-1-amine], the “four fingers grip time” value [2] was “more than two times”, the mobility time [2] was “more than twice as much” and the “time in the inverted frame (latency of falling, holding time)” value [2] was “twice as long”. The Central zone time ([3]; 5-minute movements) was 4 times, the Central latency time ([3]; P 0.07) was “differed at least twice” and the Central zone entrance ([3]; P 0.08) was “differed at least twice”. For the same molecule, the Central escape latency ([3]; P 0.4) was “differed at least twice”, the total ambulatory distance ([3]; five minute recordings) was “nearly two times more” and the Peripheral zone time ([3]; mouse, in vivo) was “mice not receiving memantine remained in the peripheral regions more”. The total rearing activity ([3]; mouse, in vivo) was “twice as much rearing activity”, the “amount of lipid droplet” value [4] was “prevented” and the “lifespan of human mesenchymal stem cells (MTT test)” value [5] was “increase the lifespan”. For the same molecule, the tolerability [6] was “well tolerated”.
